One may read the EC50 as the concentration needed to bring the measured effect to its halfway point.

This experiment deals with T1, CFTR in F508del/MF-HBE cells (Homo sapiens, UniProt P13569, DEL508-508).
T1 construct: human bronchial epithelial (HBE) cells derived from CF subjects heterozygous for F508del and a minimal function CFTR mutation; endogenous in cells; host or cells: primary human bronchial epithelial cells from CF subjects (F508del/MF-HBE)
T1 sequence (P13569 with tags, fused parts or gaps DEL508-508): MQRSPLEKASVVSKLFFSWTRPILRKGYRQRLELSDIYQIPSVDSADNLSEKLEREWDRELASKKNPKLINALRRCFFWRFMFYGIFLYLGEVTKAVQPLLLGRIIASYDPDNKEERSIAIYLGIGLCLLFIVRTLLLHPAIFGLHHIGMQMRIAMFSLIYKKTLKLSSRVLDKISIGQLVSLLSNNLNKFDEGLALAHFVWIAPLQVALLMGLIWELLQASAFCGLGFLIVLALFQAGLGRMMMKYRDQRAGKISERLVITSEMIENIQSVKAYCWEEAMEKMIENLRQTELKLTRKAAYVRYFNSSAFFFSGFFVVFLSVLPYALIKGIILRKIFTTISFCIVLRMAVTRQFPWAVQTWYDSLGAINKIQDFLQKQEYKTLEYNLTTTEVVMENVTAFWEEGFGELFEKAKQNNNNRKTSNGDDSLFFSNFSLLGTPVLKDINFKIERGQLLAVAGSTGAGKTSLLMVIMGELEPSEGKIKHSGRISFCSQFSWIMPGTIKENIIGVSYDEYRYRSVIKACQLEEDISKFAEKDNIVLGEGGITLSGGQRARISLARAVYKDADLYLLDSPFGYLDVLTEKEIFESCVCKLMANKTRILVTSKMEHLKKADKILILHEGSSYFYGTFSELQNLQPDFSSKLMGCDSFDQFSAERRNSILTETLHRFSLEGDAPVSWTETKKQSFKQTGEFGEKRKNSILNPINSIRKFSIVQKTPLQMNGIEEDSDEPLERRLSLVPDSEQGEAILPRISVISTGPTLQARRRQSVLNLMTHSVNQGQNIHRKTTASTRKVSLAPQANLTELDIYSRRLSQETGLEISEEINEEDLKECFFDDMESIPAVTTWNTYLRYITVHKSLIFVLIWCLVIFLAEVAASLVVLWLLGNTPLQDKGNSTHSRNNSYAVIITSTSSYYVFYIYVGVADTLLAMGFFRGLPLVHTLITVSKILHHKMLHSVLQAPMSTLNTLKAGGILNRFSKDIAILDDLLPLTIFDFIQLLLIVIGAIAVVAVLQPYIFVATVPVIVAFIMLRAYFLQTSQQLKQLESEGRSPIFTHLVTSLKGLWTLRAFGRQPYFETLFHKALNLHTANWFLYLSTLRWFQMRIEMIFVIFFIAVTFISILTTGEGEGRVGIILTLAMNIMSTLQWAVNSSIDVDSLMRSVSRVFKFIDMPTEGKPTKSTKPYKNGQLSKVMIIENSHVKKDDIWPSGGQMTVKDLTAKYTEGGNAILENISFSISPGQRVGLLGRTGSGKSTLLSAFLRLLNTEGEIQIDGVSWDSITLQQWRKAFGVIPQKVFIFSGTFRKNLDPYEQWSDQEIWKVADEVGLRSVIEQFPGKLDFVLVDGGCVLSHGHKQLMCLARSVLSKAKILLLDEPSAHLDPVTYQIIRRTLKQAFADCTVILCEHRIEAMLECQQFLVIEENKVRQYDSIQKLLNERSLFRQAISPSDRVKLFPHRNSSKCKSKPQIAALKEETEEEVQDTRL
The experiment is described as follows: Ussing chamber assay of CFTR-mediated short-circuit currents (identification of potentiator compounds). The conditions noted are these: potentiator incubated 18-24 hours at 37° C. in combination with 10 μM corrector, in the presence of 20% human serum, CFTR-mediated ISC. Format: cell-based. In short, it runs like this: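 Short-circuit current was measured in Ussing chambers at 37° C, Vhold 0 mV, 30 μM apical amiloride. CFTR current was defined as the forskolin (20 μM) response relative to the current remaining after BPO/GlyH-101/inhibitor 172 (20 μM each). Before recording, cells had 18-24 h exposure to test potentiators with 10 μM corrector compound in 20% human serum.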
On to `CC(C)Oc1cccc(CN2CCCCC[C@](O)(C(F)(F)F)C3=NN=C(O3)c3nc(c(C(F)(F)F)cc3N)C2=O)c1` [Compound 172, (6R)-17-amino-6-hydroxy-12-[(3-isopropoxyphenyl)methyl]-6,15-bis (trifluoromethyl)-19-oxa-3,4,12,18-tetrazatricyclo [12.3.1.12,5] nonadeca-1(18),2,4,14,1 6-pentaen-13-one], for which the EC50 is less than 500 nM. Turning to `Nc1cc(C(F)(F)F)c2nc1-c1nnc(o1)[C@@](O)(C(F)(F)F)CCCCCN(Cc1ccc(-c3ccccc3)cc1)C2=O` [Compound 173, (6R)-17-amino-6-hydroxy-12-[(4-phenylphenyl)methyl]-6,15-bis (trifluoromethyl)-19-oxa-3,4,12,18-tetrazatricyclo [12.3.1.12,5] nonadeca-1(18),2,4,14,1 6-pentaen-13-one], the EC50 was less than 500 nM. In the case of `CC1(C)CCCC[C@](O)(C(F)(F)F)C2=NN=C(O2)c2nc(c(C(F)(F)F)cc2N)C(=O)N1` [Compound 174, (6R)-17-amino-6-hydroxy-11,11-dimethyl-6,15-bis (trifluoromethyl)-19-oxa-3,4,12,18-tetrazatricyclo [12.3.1.12,5] nonadeca-1(18),2,4,14,1 6-pentaen-13-one], the EC50 was less than 500 nM. Next, `COc1ccc(CN2CCCCC[C@](O)(C(F)(F)F)C3=NN=C(O3)c3nc(c(C(F)(F)F)cc3N)C2=O)c(F)c1F` [Compound 175, (6R)-17-amino-12-[(2,3-difluoro-4-methoxy-phenyl)methyl]-6-hydroxy-6,15-bis (trifluoromethyl)-19-oxa-3,4,12,18-tetrazatricyclo [12.3.1.12,5] nonadeca-1(18),2,4,14,1 6-pentaen-13-one]: less than 500 nM. Next, `COc1cc(F)cc(CN2CCCCC[C@](O)(C(F)(F)F)C3=NN=C(O3)c3nc(c(C(F)(F)F)cc3N)C2=O)c1` [Compound 176, (6R)-17-amino-12-[(3-fluoro-5-methoxy-phenyl)methyl]-6-hydroxy-6,5-bis (trifluoromethyl)-19-oxa-3,4,12,18-tetrazatricyclo [12.3.1.12,5] nonadeca-1(18),2,4,14,1 6-pentaen-13-one]: less than 500 nM. `COc1ccc(CN2CCCCC[C@](O)(C(F)(F)F)C3=NN=C(O3)c3nc(c(C(F)(F)F)cc3N)C2=O)c(F)c1` [Compound 177, (6R)-17-amino-12-[(2-fluoro-4-methoxy-phenyl)methyl]-6-hydroxy-6,15-bis (trifluorom ethyl)-19-oxa-3,4,12,18-tetrazatricyclo [12.3.1.12,5] nonadeca-1(18),2,4,14,1 6-pentaen-13-one]: the EC50 is less than 500 nM. As to `Nc1cc(C(F)(F)F)c2nc1-c1nnc(o1)[C@@](O)(C(F)(F)F)CCCCCN(Cc1cc(Cl)cc(OC(F)(F)F)c1)C2=O` [Compound 178, (6R)-17-amino-12-[[3-chloro-5-(trifluoromethoxy)phenyl]methyl]-6-hydroxy-6,15-bis (trifluoromethyl)-19-oxa-3,4,12,18-tetrazatricyclo [12.3.1.12,5] nonadeca-1(18),2,4,14,1 6-pentaen-13-one], the EC50 was less than 500 nM. Next, `Cc1cc(CN2CCCCC[C@](O)(C(F)(F)F)C3=NN=C(O3)c3nc(c(C(F)(F)F)cc3N)C2=O)cc(OC(F)(F)F)c1` [Compound 179, (6R)-17-amino-6-hydroxy-12-[[3-methyl-5-(trifluoromethoxy)phenyl]methyl]-6,15-bis (trifluoromethyl)-19-oxa-3,4,12,18-tetrazatricyclo [12.3.1.12,5] nonadeca-1(18),2,4,14,1 6-pentaen-13-one]: less than 500 nM; `Cc1c(CN2CCCCC[C@](O)(C(F)(F)F)C3=NN=C(O3)c3nc(c(C(F)(F)F)cc3N)C2=O)cccc1OC(F)(F)F` [Compound 180, (6R)-17-amino-6-hydroxy-12-[[2-methyl-3-(trifluoromethoxy)phenyl]methyl]-6,15-bis(trifluoromethyl)-19-oxa-3,4,12,18-tetrazatricyclo [12.3.1.12,5] nonadeca-1(18),2,4,14,1 6-pentaen-13-one]: less than 500 nM. Next, `Nc1cc(C(F)(F)F)c2nc1-c1nnc(o1)[C@@](O)(C(F)(F)F)CCCCCN(Cc1ccc(OCC(F)(F)F)cc1)C2=O` [Compound 181, (6R)-17-amino-6-hydroxy-12-[[4-(2,2,2-trifluoroethoxy)phenyl]methyl]-6,15-bis (trifluoromethyl)-19-oxa-3,4,12,18-tetrazatricyclo [12.3.1.12,5] nonadeca-1(18),2,4,14,1 6-pentaen-13-one]: less than 500 nM; `Nc1cc(C(F)(F)F)c2nc1-c1nnc(o1)[C@@](O)(C(F)(F)F)CCCCCN(Cc1cccc(C(F)(F)F)c1)C2=O` [Compound 182, (6R)-17-amino-6-hydroxy-6,15-bis (trifluoromethyl)-12-[[3-(trifluoromethyl)phenyl]methyl]-19-oxa-3,4,12,18-tetrazatricyclo [12.3.1.12,5] nonadeca-1(18),2,4,14,1 6-pentaen-13-one]: less than 500 nM; `C[C@H]1C[C@H](c2ccc(CN3CCCCC[C@](O)(C(F)(F)F)C4=NN=C(O4)c4nc(c(C(F)(F)F)cc4N)C3=O)cc2)C1` [Compound 183, (6R)-17-amino-6-hydroxy-12-({4-[trans-3-methylcyclobutyl]phenyl}methyl)-6,15-bis (trifluoromethyl)-19-oxa-3,4,12,18-tetraazatricyclo [12.3.1.12,5] nonadeca-1(18),2,4,14,1 6-pentaen-13-one]: less than 500 nM. Consider `CC(C)(C)c1cccc(CN2CCCCC[C@](O)(C(F)(F)F)C3=NN=C(O3)c3nc(c(C(F)(F)F)cc3N)C2=O)n1` [Compound 184, (6R)-17-amino-12-[(6-tert-butyl-2-pyridyl)methyl]-6-hydroxy-6,15-bis (trifluoromethyl)-19-oxa-3,4,12,18-tetrazatricyclo [12.3.1.12,5] nonadeca-1(18),2,4,14,1 6-pentaen-13-one], for which the EC50 is less than 500 nM. As for `Nc1cc(C(F)(F)F)c2nc1-c1nnc(o1)[C@@](O)(C(F)(F)F)CCCCCN(Cc1cccc(N3CCCCC3)n1)C2=O` [Compound 185, (6R)-17-amino-6-hydroxy-12-[[6-(1-piperidyl)-2-pyridyl]methyl]-6,15-bis (trifluoromethyl)-19-oxa-3,4,12,18-tetrazatricyclo [12.3.1.12,5] nonadeca-1(18),2,4,14,1 6-pentaen-13-one], the EC50 is less than 500 nM. In the case of `Nc1cc(C(F)(F)F)c2nc1-c1nnc(o1)[C@@](O)(C(F)(F)F)CCCCCN(Cc1cccc(OCC(F)(F)F)c1)C2=O` [Compound 186, (6R)-17-amino-6-hydroxy-12-[[3-(2,2,2-trifluoroethoxy)phenyl]methyl]-6,15-bis (trifluoromethyl)-19-oxa-3,4,12,18-tetrazatricyclo [12.3.1.12,5] nonadeca-1(18),2,4,14,1 6-pentaen-13-one], the EC50 was less than 500 nM. To `Nc1cc(C(F)(F)F)c2nc1-c1nnc(o1)[C@@](O)(C(F)(F)F)CCCCCN(Cc1ccc(N3CCCCC3)nc1)C2=O` [Compound 187, (6R)-17-amino-6-hydroxy-12-[[6-(1-piperidyl)-3-pyridyl]methyl]-6,15-bis (trifluoromethyl)-19-oxa-3,4,12,18-tetrazatricyclo [12.3.1.12,5] nonadeca-1(18),2,4,14,1 6-pentaen-13-one] belongs less than 500 nM. Next, `Nc1cc(C(F)(F)F)c2nc1-c1nnc(o1)[C@@](O)(C(F)(F)F)CCCCCNC2=O` [Compound 188, (6R)-17-amino-6-hydroxy-6,15-bis(trifluoromethyl)-19-oxa-3,4,12,18-tetrazatricyclo[12.3.1.12,5]nonadeca-1(18),2,4,14,16-pentaen-13-one]: less than 500 nM; `Nc1cc(C(F)(F)F)c2nc1-c1nnc(o1)[C@](O)(C(F)(F)F)CCCCCNC2=O` [Compound 189, (6S)-17-amino-6-hydroxy-6,15-bis(trifluoromethyl)-19-oxa-3,4,12,18-tetrazatricyclo[12.3.1.12,5]nonadeca-1(18),2,4,14,16-pentaen-13-one]: greater than 1000 nM. Take `CC(=O)N1CC2(CC(N3CCCCC[C@](O)(C(F)(F)F)C4=NN=C(O4)c4nc(c(C(F)(F)F)cc4N)C3=O)C2)C1` [Compound 190, (6R)-12-(2-acetyl-2-azaspiro[3.3]heptan-6-yl)-17-amino-6-hydroxy-6,15-bis(trifluoromethyl)-19-oxa-3,4,12,18-tetrazatricyclo[12.3.1.12,5]nonadeca-1(18),2,4,14,16-pentaen-13-one]: the EC50 is greater than 1000 nM. Next, `Nc1cc(C(F)(F)F)c2nc1-c1nnc(o1)[C@@](O)(C(F)(F)F)CCCCCN(C1CC3(C1)CN(C(=O)C1CC1)C3)C2=O` [Compound 191, (6R)-17-amino-12-[2-(cyclopropanecarbonyl)-2-azaspiro[3.3]heptan-6-yl]-6-hydroxy-6,15-bis(trifluoromethyl)-19-oxa-3,4,12,18-tetrazatricyclo[12.3.1.12,5]nonadeca-1(18),2,4,14,16-pentaen-13-one]: greater than 1000 nM; `NC[C@H]1CC[C@H](N2CCCCC[C@](O)(C(F)(F)F)C3=NN=C(O3)c3nc(c(C(F)(F)F)cc3N)C2=O)CC1` [Compound 192, (6R)-17-amino-6-hydroxy-12-[trans-4-(aminomethyl)cyclohexyl]-6,15-bis(trifluoromethyl)-19-oxa-3,4,12,18-tetraazatricyclo[12.3.1.12,5]nonadeca-1(18),2,4,14,16-pentaen-13-one]: greater than 1000 nM.

With `N#C[C@H]1CC[C@H](N2CCCCC[C@](O)(C(F)(F)F)C3=NN=C(O3)c3nc(c(C(F)(F)F)cc3N)C2=O)CC1` [Compound 193, trans-4-[(6R)-17-amino-6-hydroxy-13-oxo-6,15-bis(trifluoromethyl)-19-oxa-3,4,12,18-tetraazatricyclo[12.3.1.12,5]nonadeca-1(18),2,4,14,16-pentaen-12-yl]cyclohexane-1-carbonitrile], the EC50 was less than 500 nM.

The values are drawn from patent US20250122218A1, “MODULATORS OF CYSTIC FIBROSIS TRANSMEMBRANE CONDUCTANCE REGULATOR” (Vertex Pharmaceuticals Incorporated, priority 2022, published 2025).
